Experimental data published in patent US20130197085A1, “AGENT AND METHOD FOR STABILIZING MEMBRANE PROTEIN” (priority 2007, published 2013).

Key:
[1] = test system: intrinsic dipeptidyl peptidase IV (DPPIV); assay: Decomposition rate of cell surface-expressed protein (biotin-labeling) in MDCKII cells; format: cell-based; settings: 1 mM 4PBA
Experimental: MDCKII cells were dispersed on a 6-well plate, resulting in a density of 2.5×10^5 cells/well. After completion of the culture for 24 hours, the confluent cells were infected with recombinant adenoviruses having the cDNAs of wild-type, E297G and D482G BSEPs, and GFP, at 200 MOI. After completion of the infection, the cells were cultured for 24 hours. […] After completion of the treatment for 24 hours, the cells were biotinylated (see Hayashi et al., Hepatology, 41: 916-924, 2005).
The remaining biotinylated protein was isolated, and it was then subjected to 6% SDS-PAGE, followed by Western blotting.

[2] = target: T1, wild-type BSEP (Homo sapiens, UniProt O95342, L339V); assay: Brefeldin A washing experiment, maturation of BSEP in MDCKII cells; format: cell-based; settings: 1 mM 4PBA
T1 construct: expressed in transfected cells; host or cells: MDCKII cells infected with recombinant adenovirus
Experimental: (§1) MDCKII cells were dispersed on a 6-well plate, resulting in a density of 2.5×10^5 cells/well. After completion of the culture for 24 hours, the confluent cells were infected with recombinant adenoviruses having the cDNAs of wild-type, E297G and D482G BSEPs, and GFP, at 200 MOI. After completion of the infection, the cells were cultured for 12 hours. Thereafter, in order to inhibit the transport of BSEP from the endoplasmic reticulum to the Golgi body, the cells were treated in the presence or absence of 5 μg/ml brefeldin A (Sigma). After completion of the treatment for 2 hours, in the presence or absence of brefeldin A, 4PBA was added to the cells to a concentration of 1 mM. At the time point of 12 hours after the 4PBA treatment, a crude membrane fraction was prepared. The obtained fraction was separated by 6% SDS-PAGE, and Western blotting was then carried out.
(§2) The promotion of a process of converting an immature BSEP existing in the endoplasmic reticulum to a mature BSEP existing on the cell surface is considered to be a post-translation mechanism that may be associated with an increase in the expression of the mature BSEP on the cell surface. In order to evaluate the effects of the 4PBA treatment on the maturation of a BSEP, the transport of the BSEP from the endoplasmic reticulum to the Golgi body was inhibited with brefeldin A (BFA), the BFA was then washed out, and the maturation rate of the BSEP on MDCKII cells was measured. BFA is an agent for inducing the accumulation of an immature BSEP existing in the endoplasmic reticulum (FIGS. 5A and 5B). The maturation rate was evaluated by washing out such BFA and then measuring an increased amount of the band density of a mature BSEP over time according to Western blotting. The band density of the mature BSEP was calculated by subtracting the band density at 0 (zero) hour from the band density at each measurement time (FIG. 5B). […] In addition, in the case of mature BSEPs, the expression levels were not changed until 3 hours after the washing out of BFA, regardless of the presence or absence of 4PBA. […] At the time point 8 hours after the washing out of BFA, the MDCKII cells treated with 4PBA were compared with the MDCKII cells that had not been treated with 4PBA. As a result, the expression level of a mature BSEP in the MDCKII cells treated with 4PBA was higher than the same expression level in the MDCKII cells that had not been treated with 4PBA.

[3] = target: T2, E297G BSEP (Homo sapiens, UniProt O95342, E297G/L339V); assay: as above; format: cell-based; settings: 1 mM 4PBA
T2 construct: expressed in transfected cells; host or cells: MDCKII cells infected with recombinant adenovirus
Experimental: as §1, §2

[4] = target: T3, D482G BSEP (Homo sapiens, UniProt O95342, D482G/L339V); assay: Treatment with actinomycin D and cycloheximide, upregulation of mature BSEP by 4PBA in MDCKII cells; format: cell-based; settings: 1 mM 4PBA, 6 hours
T3 construct: expressed in transfected cells; host or cells: MDCKII cells infected with recombinant adenovirus
Experimental: (§3) MDCKII cells were dispersed on a 6-well plate, resulting in a density of 2.5×10^5 cells/well. After completion of the culture for 24 hours, the confluent cells were infected with recombinant adenoviruses having the cDNAs of wild-type, E297G and D482G BSEPs, and GFP, at 200 MOI. After completion of the infection, the cells were cultured for 36 hours. Thereafter, in order to inhibit mRNA synthesis, the cells were treated in the presence or absence of 5 μg/ml actinomycin D (Sigma). Otherwise, in order to inhibit protein synthesis, the cells were treated in the presence or absence of 20 μg/ml cycloheximide (Sigma). After completion of the treatment for 2 hours, in the presence or absence of actinomycin D or in the presence or absence of cycloheximide, 4PBA was added to the cells to a concentration of 1 mM. At the time point of 6 hours (E297G and D482G BSEPs) or 8 hours (wild-type BSEP) after the 4PBA treatment, a crude membrane fraction was prepared. The obtained fraction was separated by 6% SDS-PAGE, and Western blotting was then carried out.

[5] = target: T1, wild-type BSEP; assay: as above; format: cell-based; settings: 1 mM 4PBA, 8 hours
Experimental: as §3

[6] = target: T2, E297G BSEP; assay: as above; format: cell-based; settings: 1 mM 4PBA, 6 hours
Experimental: as §3

[7] = test system: E297G BSEP mRNA; assay: Measurement of BSEP mRNA level by real-time quantitative PCR in MDCKII cells; format: cell-based, human; settings: 1 mM 4PBA, 24 hours; not statistically significant (P=0.20)
Experimental: (§4) MDCKII cells were dispersed on a 6-well plate, resulting in a density of 2.5×10^5 cells/well. After completion of the culture for 24 hours, the confluent cells were infected with recombinant adenoviruses having the cDNAs of wild-type, E297G and D482G BSEPs, and GFP, at 50 MOI. After completion of the infection, the cells were cultured for 24 hours. Thereafter, the cultured cells were treated with 1 mM 4PBA. After completion of the treatment for 24 hours, RNA was isolated using ISOGEN (Wako Pure Chemical Industries, Ltd.) in accordance with an instruction manual included therewith. A DNaseI treatment was carried out at 37° C. for 1 hour, and a reverse transcription reaction was then carried out (see Hayashi et al., Hepatology, 41: 916-924, 2005). The BSEP mRNA level was measured by real-time quantitative PCR according to an ordinary method. The quantitative PCR was carried out using the following primers.
(§5) It is to be noted that the expression of a BSEP gene in each reaction was standardized by the expression of GAPDH.

[8] = test system: D482G BSEP mRNA; assay: as above; format: cell-based, human; settings: 1 mM 4PBA, 24 hours; not statistically significant (P=0.20)
Experimental: as §4, §5

[9] = test system: wild-type BSEP mRNA; assay: as above; format: cell-based, human; settings: 1 mM 4PBA, 24 hours; not statistically significant (P=0.10)
Experimental: as §4, §5

[10] = 8 hours after the washing out of BFA
[11] = immediately after the washing out of BFA (hour 0)

T2 sequence (O95342 whole entry E297G/L339V): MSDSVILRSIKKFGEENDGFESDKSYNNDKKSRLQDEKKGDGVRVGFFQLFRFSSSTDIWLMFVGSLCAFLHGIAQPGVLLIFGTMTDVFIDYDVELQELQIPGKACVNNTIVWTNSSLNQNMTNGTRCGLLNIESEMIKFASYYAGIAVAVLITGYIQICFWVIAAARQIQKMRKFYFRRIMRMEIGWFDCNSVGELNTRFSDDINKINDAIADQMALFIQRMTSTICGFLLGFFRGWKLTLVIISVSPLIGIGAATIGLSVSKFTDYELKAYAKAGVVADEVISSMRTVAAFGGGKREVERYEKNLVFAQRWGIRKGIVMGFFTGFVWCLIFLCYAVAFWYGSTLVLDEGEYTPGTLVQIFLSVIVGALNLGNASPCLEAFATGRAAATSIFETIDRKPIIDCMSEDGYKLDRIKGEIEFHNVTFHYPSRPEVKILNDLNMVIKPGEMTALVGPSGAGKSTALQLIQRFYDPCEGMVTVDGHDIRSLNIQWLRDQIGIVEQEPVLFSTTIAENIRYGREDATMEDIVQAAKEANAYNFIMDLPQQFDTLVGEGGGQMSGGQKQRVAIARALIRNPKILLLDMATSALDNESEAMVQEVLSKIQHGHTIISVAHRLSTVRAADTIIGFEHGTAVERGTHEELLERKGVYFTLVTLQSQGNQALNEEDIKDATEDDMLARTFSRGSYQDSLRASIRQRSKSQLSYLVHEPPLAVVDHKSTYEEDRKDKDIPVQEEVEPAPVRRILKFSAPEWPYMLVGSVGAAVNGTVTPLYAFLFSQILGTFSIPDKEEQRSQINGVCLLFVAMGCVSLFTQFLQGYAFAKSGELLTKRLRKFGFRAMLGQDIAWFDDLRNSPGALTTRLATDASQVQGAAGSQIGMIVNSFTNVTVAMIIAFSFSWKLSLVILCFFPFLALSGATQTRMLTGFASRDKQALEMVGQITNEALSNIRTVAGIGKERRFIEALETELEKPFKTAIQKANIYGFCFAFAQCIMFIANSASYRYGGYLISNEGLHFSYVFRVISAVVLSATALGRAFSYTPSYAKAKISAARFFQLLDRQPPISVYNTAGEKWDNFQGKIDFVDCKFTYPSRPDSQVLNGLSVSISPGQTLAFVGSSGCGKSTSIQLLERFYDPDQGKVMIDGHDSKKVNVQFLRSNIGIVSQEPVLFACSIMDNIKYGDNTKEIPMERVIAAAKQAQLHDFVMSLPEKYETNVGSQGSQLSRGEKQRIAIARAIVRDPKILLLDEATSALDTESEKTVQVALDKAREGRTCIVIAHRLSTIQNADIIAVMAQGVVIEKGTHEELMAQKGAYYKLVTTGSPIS
T1 sequence (O95342 whole entry L339V): as the sequence (O95342 whole entry E297G/L339V) above, with G297E counted along it
T3 sequence (O95342 whole entry L339V/D482G): as the sequence (O95342 whole entry E297G/L339V) above, with G297E, D482G counted along it

O=C(O)CCCc1ccccc1 [4PBA, 4-phenylbutyric acid]
decomposition of intrinsic DPPIV on the cell surface [1]: not influenced | expression level of mature BSEP, 4PBA-treated vs not treated cells [2, 10]: higher | expression level of immature BSEP in the endoplasmic reticulum, with vs without 4PBA [2, 11]: almost the same | expression level of mature BSEP, 4PBA-treated vs not treated cells [3, 10]: higher | expression level of immature BSEP in the endoplasmic reticulum, with vs without 4PBA [3, 11]: almost the same | effect of transcription inhibition by actinomycin D on the increase in expression of mature BSEP due to 4PBA ([4]; actinomycin D 5 μg/ml): did not affect | effect of translation inhibition by cycloheximide on the increase in expression of mature BSEP due to 4PBA ([4]; cycloheximide 20 μg/ml): did not affect | effect of transcription inhibition by actinomycin D on the increase in expression of mature BSEP due to 4PBA ([5]; actinomycin D 5 μg/ml): did not affect | effect of translation inhibition by cycloheximide on the increase in expression of mature BSEP due to 4PBA ([5]; cycloheximide 20 μg/ml): did not affect | effect of transcription inhibition by actinomycin D on the increase in expression of mature BSEP due to 4PBA ([6]; actinomycin D 5 μg/ml): did not affect | effect of translation inhibition by cycloheximide on the increase in expression of mature BSEP due to 4PBA ([6]; cycloheximide 20 μg/ml): did not affect | expression level of BSEP mRNA standardized by GAPDH mRNA [7]: slightly increased | expression level of BSEP mRNA standardized by GAPDH mRNA [8]: slightly increased | expression level of BSEP mRNA standardized by GAPDH mRNA [9]: slightly increased
